Assay: Tested for competitive inhibitory activity against beta-Glucosidase

| Ki [mM] | SMILES |
| --- | --- |
| 0.8 | COC1OC(CO)C(Sc2ncccc2O)C(O)C1O (stereo unspecified) [6-Hydroxymethyl-5-(3-hydroxy-pyridin-2-ylsulfanyl)-2-methoxy-tetrahydro-pyran-3,4-diol] |
| 8 | COC1OC(CO)C(Sc2ccccn2)C(O)C1O (stereo unspecified) [6-Hydroxymethyl-2-methoxy-5-(pyridin-2-ylsulfanyl)-tetrahydro-pyran-3,4-diol] |
| 4.5 | COC1OC(CO)C(Sc2nc(C)ccc2O)C(O)C1O (stereo unspecified) [6-Hydroxymethyl-5-(3-hydroxy-6-methyl-pyridin-2-ylsulfanyl)-2-methoxy-tetrahydro-pyran-3,4-diol] |

Second part, the compound before the results:

| SMILES | Ki [mM] |
| --- | --- |
| CO[C@@H]1O[C@@H](CO)[C@@H](Oc2cccnc2S[C@H]2[C@H](O)[C@H](O)[C@H](OC)O[C@H]2CO)[C@H](O)[C@@H]1O | 5.5 |
| COC1OC(CO)C(Sc2nc(CO)ccc2O)C(O)C1O (stereo unspecified) [5-(3-Hydroxy-6-hydroxymethyl-pyridin-2-ylsulfanyl)-6-hydroxymethyl-2-methoxy-tetrahydro-pyran-3,4-diol] | 4 |
| COC1OC(CO)C(Sc2nc(CN(C)C)ccc2O)C(O)C1O (stereo unspecified) [5-(6-Dimethylaminomethyl-3-hydroxy-pyridin-2-ylsulfanyl)-6-hydroxymethyl-2-methoxy-tetrahydro-pyran-3,4-diol] | 20 |

— BindingDB's records for doi:10.1016/0960-894X(95)00111-6 (1995)
